In patent US20250241840A1, “ORALLY ADMINISTRATED COSMETIC COMPOSITIONS TO TREAT SKIN DRYNESS” (IIAA Limited, priority 2022, published 2025):

How the values were obtained:
[1] = system: human subjects with dry skin and mild to moderate atopic dermatitis; conditions: 200 mg/day GLA orally; measurements at weeks 0, 4, 8, 12 and 16; cited from earlier work
[2] = system: skin of the cheek; assay: Example 1: 28-day oral hyaluronic acid study, hydration, TEWL and wrinkle depth of the skin of the cheek; format: in vivo, human; conditions: 200 mg HA orally once daily, 28 days
Experimental: A cachet containing 200 mg hyaluronic acid (HA) was administered orally, once daily, to 30 subjects for 28 days. The hyaluronic acid administered in this manner consisted of hyaluronic acid molecules having molecular weights in a range of from 50 to 2200 kDa. The hydration, TEWL and wrinkle depth of the skin of the cheek of each subject was measured on the first day of the 28-day study and on the last day of the 28-day study. A Courage+Khazaka Dual 580 Multi Probe Adapter System fitted with a Corneometer™ CM 825 probe (obtainable from Courage & Khazaka Electronic GmbH of Mathias-Brüggen-Straße 91, 50829 Köln, Germany) was used to measure the surface hydration of the subjects' skin. A Courage+Khazaka Dual 580 Multi Probe Adapter System fitted with a Tewameter™ 300 probe was used to measure the TEWL of the subjects' skin. A PRIMOS 3D™ optical skin measurement device was used to measure the depth and width of wrinkles in the subjects' skin. The average percentage change in each of the parameters measured from the first day of the 28-day study to the last day of the 28-day study was calculated.

Compound	Effect on TEWL [1]	Skin surface hydration, average percentage change over the course of the 28-day study ([2]; Corneometer CM 825)	Skin surface hydration, average percentage change over the course of the 28-day study ([2]; Corneometer CM 825, listed as HA)	Wrinkle depth, average percentage change over the course of the 28-day study ([2]; PRIMOS 3D) [%]	TEWL, average percentage change over the course of the 28-day study ([2]; Tewameter 300) [%]
CCCCC/C=C\C/C=C\C/C=C\CCCCC(=O)O [GLA, all-cis-6,9,12-octadecatrienoic acid]	reduce TEWL	–	–	–	–
hyaluronic acid	–	+10.6%	+10.6%	−18.8	−3.9
